Measured values taken from PubChem BioAssay (NCI).
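How tested: cells in 96-well plates exposed to compound for 48 hours at five concentrations. GI50: concentration for 50% inhibition of growth. The concentration for full growth arrest is given as TGI.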

Key:
Test in all cases: NCI tumour cell line growth inhibition, 48 h
[1] = test system: HCT-116 colon
[2] = test system: RXF 393 renal
[3] = test system: HOP-92 NSCLC
[4] = test system: EKVX NSCLC
[5] = test system: CCRF-CEM leukemia
[6] = test system: T-47D breast
[7] = test system: OVCAR-3 ovarian
[8] = test system: MCF7 breast
[9] = test system: TK-10 renal
[10] = test system: PC-3 prostate

Compound	GI50 [1] [µM]	TGI [1] [µM]	GI50 [2] [µM]	TGI [2] [µM]	GI50 [3] [µM]	TGI [3] [µM]	GI50 [4] [µM]	TGI [4] [µM]	GI50 [5] [µM]	TGI [5] [µM]	GI50 [6] [µM]	TGI [6] [µM]	GI50 [7] [µM]	TGI [7] [µM]	GI50 [8] [µM]	TGI [8] [µM]	GI50 [9] [µM]	TGI [9] [µM]	GI50 [10] [µM]	TGI [10] [µM]
CC1(C)OC2C(CO[Si](C)(C)C(C)(C)C)OC(n3c(I)c(C#C[Si](C)(C)C)c(=O)[nH]c3=O)C2O1 (stereo not given)	1.66	3.37	2.51	9.1	0.0445	14.1	59.6	> 100	2.67	11	10.5	26.4	1.81	3.54	11.2	24.3	6.44	20	2.04	4.13
CNCCOC(=O)/C=C1\CC[C@H]2[C@@H]([C@@H](O)C(=O)[C@@H]3[C@]2(C)CC[C@H](O)[C@]3(C)C(=O)OC)[C@H]1C	0.294	1.03	0.205	0.579	0.527	3.52	0.229	0.539	0.291	1.09	0.33	1.67	0.228	0.49	0.368	1.7	0.262	0.76	0.369	2.34
O=C(c1ccco1)c1c(C(F)(F)F)nc2ccc(Cl)cc2[n+]1[O-]	> 100	> 100	70.3	> 100	44	> 100	56.8	> 100	> 100	> 100	> 100	> 100	> 100	> 100	> 100	> 100	> 100	> 100	> 100	> 100
Cc1nc(Nc2cccnc2)sc1C(=O)/C=C/c1ccc(F)cc1	1.64	4.18	3.01	8.31	3.1	9.98	5.15	> 100	1.4	24.7	2.25	> 100	3.14	12.8	2.29	> 100	2.98	> 100	4.07	20.1
S=c1[nH]c(=S)c2cc3ccccc3nc2[nH]1	69.8	> 100	> 100	> 100	15.4	> 100	31	> 100	5.21	> 100	11.1	> 100	12.9	95.8	5.33	> 100	94.2	> 100	4.74	> 100
COC(=O)c1c2c(c(C)[n+]([O-])c1C)C(=O)C=C(NCc1ccc(F)cc1)C2=O	0.319	1.18	1.43	2.93	1.72	3.83	0.963	2.23	0.5	6	0.288	1.88	0.245	0.744	0.276	1.04	3.3	9.55	0.317	3.68
O=C(Nc1ccc(Br)cc1F)c1cc(Cl)ccc1O	0.522	2.45	0.852	3.99	0.174	0.557	1.12	> 26.2	2.08	7.63	0.466	4.83	0.476	> 26.6	1.84	> 100	3.5	10.2	1.87	6.68
NC(N)=NCCCC(=O)O	–	> 100	–	> 100	–	> 100	–	> 100	–	> 100	–	> 100	–	> 100	–	> 100	–	> 100	–	> 100
